# In US11479561B2, “Tetrahydroisoquinoline derivatives” (Cytokinetics, Incorporated, priority 2016, dated 2022):
# Tests used:
# [1] = tested on: ankle plantarflexor muscle; experiment: Rat isometric ankle plantarflexor muscle force; format: in vivo, Sprague Dawley rats; details: estimated, concentration at which muscle force is 50% of the pre-dose maximum tension, 30 Hz stimulation, continuous intravenous infusion over 60 min
# Description: Female Sprague Dawley rats were placed under a stable anesthesic plane with inhaled isoflurane (1-5%). One incision was made on the mid-thigh region of the right leg to expose the sciatic nerve. To prevent co-contraction of the ankle dorsiflexors, an additional incision was made lateral to the patella to isolate and sever the peroneal nerve. Rats were then placed on a temperature-maintained in situ muscle analysis rig (Aurora Scientific, Model 806C). The knee was immobilized in a clamp between two sharpened screws and the foot was taped to a footplate attached to a force transducer (Aurora Scientific, Ontario, Canada). Stainless steel needle electrodes (0.10 mm) were hooked around the exposed sciatic nerve. Isometric ankle plantarflexor muscle contractile force was assessed with the ankle joint at 90° flexion. A 30 Hz electrical stimulation (under supramaximal voltage conditions) was applied to the nerve and the resulting muscle force was recorded via a servomotor. A pre-dose 30 Hz force response was established as the baseline force. A pre-dose 150 Hz force response was established as the maximum isometric force. Compounds were formulated in 50% polyethylene glycol (PEG): 16% Cavitron: 10% dimethylacetamide (DMA) and administered by continuous intravenous infusion over a sixty minute period. The muscle force response to compound was measured every two minutes over the dosing period. Data was reported as an estimated EC50 value, which is the concentration at which muscle force is 50% of the pre-dose maximum tension.
# [2] = tested on: rabbit skeletal myofibrils (approximately 90% fast fibers); experiment: Activation of fast skeletal myofibrils (PUMA coupled-enzyme ATPase assay); format: biochemical; details: concentration at which the compound increased the enzymatic activity by 40%; calcium level pCa25
# Method: Preparation of fast skeletal myofibrils: Rabbit skeletal myofibrils were prepared based upon the method of Herrmann et al. (Biochem. 32(28):7255-7263(1993). Myofibrils were prepared from rabbit psoas muscle purchased from Pel-Freez Biologicals (Arkansas) within 2 days of ordering, stored on ice. Minced muscle was homogenized in 10 volumes of ice-cold “standard” buffer (50 mM Tris, pH 7.4, 0.1 M KOAc, 5 mM KCl, 2 mM dithiothreitol (DTT), 0.2 mM phenylmethylsulfonyl fluoride (PMSF), 10 μM leupeptin, 5 μM pepstatin, and 0.5 mM sodium azide) containing 5 mM ethylenediaminetetraacetic acid (EDTA) and 0.5% Triton X-100 using an Omni-Macro homogenizer. Myofibrils were recovered by low speed centrifugation (3000 rpm for 10 minutes) and washed 2 times in the Triton X-100 containing buffer to ensure removal of cellular membrane. Following the Triton washes, myofibrils were washed 3 times in “standard” buffer containing 2 mM magnesium acetate. A final wash in assay buffer (12 mM piperazine-1,4-bis(2-ethanesulfonic acid) (PIPES), pH 6.8, 60 mM KCl, 1 mM DTT) was performed and brought to 10% sucrose for flash freezing in liquid nitrogen and storage at −80° C.
# Activation of Fast Skeletal Myofibrils: Fast fiber activators were identified by Measuring the enzymatic activity of muscle myofibril preparations using the proprietary PUMA (trademark) (see, e.g., U.S. Pat. Nos. 6,410,254, 6,743,599, 7,202,051, and 7,378,254) assay system. Myofibril preparations consisted of rabbit skeletal muscle (approximately 90% fast fibers) that had been mechanically homogenized and washed with a detergent (Triton X-100) to remove cellular membranes. This preparation retained all of the sarcomeric components in a native conformation and the enzymatic activity was still regulated by calcium. Compounds were tested using a myofibril suspension and a level of calcium sufficient to increase enzymatic activity of the myofibrils to 25% of their maximal rate (termed pCa25). Enzymatic activity was tracked via a pyruvate kinase and lactate dehydrogenase-coupled enzyme system. This assay regenerates myosin-produced ADP into ATP by oxidizing NADH, producing an absorbance change at 340 nm. The buffering system was 12 mM PIPES, 2 mM MgCl2, 1 mM DTT at pH 6.8 (PM12 buffer).
# [3] = tested on: rat model of post-SCI; experiment: Basso, Beattie, and Bresnahan (BBB) score of post-spinal cord injury (SCI); format: in vivo, SD rats; details: post-SCI rats; day 6-7, 13-14, 20-21 after SCI; FIG. 8
# Method: Preparation of the rat model of post-SCI: The rat model was prepared based on the method of Scheff et. al. (J Neurotrauma. 2003 February; 20(2):179-93.) which uses Infinite Horizon impactor (IH-0400; Precision Systems and Instrumentation). Female SD rats (10 week old) were anesthetized with a mixture of 0.3 mg/kg medetomidine, 4 mg/kg midazoram, and 5 mg/kg butorphanol (s.c.). The dorsal region of the rats was incised and the thoracic spine from T8 to T12 was exposed. Subsequently, laminectomy was performed on T9 and T10. On the stage of IH-0400, the exposed spinal column of the rats was stabilized by clamping with two forceps attached to the joints of IH-0400. Each of the joint and the forceps was tightly locked. Injury of T9 and T10 was induced with a rod impact of 210 kdyn. After dorsal closure, the rats were housed one per cage under the postoperative care which includes the injections of 5 mL saline s.c. and 50 mg/kg Cefamezin s.c twice a day for a week after the SCI, and includes the manual expression of the bladder of the rats twice a day using Crede maneuver until the function of the bladder recovers. […] The effect of Example Compound 52 or vehicle was analyzed using unpaired t test (a probability value of less than 0.05 was considered as a significant difference). Data were expressed as the mean±SEM.
SMILES,AC1.4 [2],"EC50 ([1]; Rattus norvegicus, iv, 1 h)",EC50 [1],BBB score [3]
CCC1(CCO)C(=O)NC2(COC2)c2ccc(OC(F)F)nc21 (stereo not drawn) [compound 15],,16.4 µM,,
CC1(C)NC(=O)C(C)(C)c2cc(Cl)cnc21 [compound 73],1.571 µM,50 µM,,
CC1(C)NC(=O)C(C)(Cc2cc[nH]n2)c2nc(C#N)ccc21 (stereo not drawn) [compound 109],1.919 µM,39.7 µM,,
CCC1(CC)C(=O)NC2(COC2)c2ccc(C(F)F)nc21 [compound 13],,19.5 µM,,
CCC1(CC)C(=O)NC2(COC2)c2ccc(C#N)nc21 [compound 16],,13 µM,,
CC1(CC(F)F)C(=O)NC2(COC2)c2ccc(OC(F)F)nc21 (stereo not drawn) [compound 113],0.271 µM,8 µM,,
CC1(C)NC(=O)C(C)(C)c2cc(C#N)ccc21 [compound 61],0.537 µM,10.3 µM,,
CCC1(CC)C(=O)NC2(COC2)c2cccnc21 [compound 12],,34 µM,,
CC1(C)C(=O)NC2(COC2)c2ccc(C#N)cc21 [compound 20],,30 µM,,
CC1(CCO)C(=O)NC2(COC2)c2ccc(OC(F)F)nc21 (stereo not drawn) [compound 19],,35 µM,,
CC1(C)C(=O)NC2(COC2)c2ccc(OC(F)F)nc21 [compound 18],,16 µM,,
CCC1(CC)C(=O)NC2(COC2)c2ccc(OCC(F)(F)F)nc21 [compound 11],,17 µM,,

# Continued, in another order:
AC1.4 [2],SMILES,"EC50 ([1]; Rattus norvegicus, iv, 1 h)",EC50 [1],BBB score [3]
1.247 µM,CCC1(CCO)C(=O)NC2(COC2)c2ccc(C(F)F)nc21 (stereo not drawn) [compound 103],23 µM,,
0.450 µM,CCC1(C)C(=O)NC(C)(C)c2ccc(C#N)nc21 (stereo not drawn) [compound 108],23 µM,,
2.228 µM,CCC1(CCO)C(=O)NC2(COC2)c2ccc(C#N)nc21 (stereo not drawn) [compound 101],24 µM,,
0.565 µM,"CC1(CCO)C(=O)NC2(COC2)c2ccc(Cl)cc21 (stereo not drawn) [compound 35, 6-chloro-4-(2-hydroxyethyl)-4-methyl-2H-spiro[isoquinoline-1,3′-oxetan]-3(4H)-one]",,23 µM,
0.494 µM,CCC1(CC)C(=O)NC2(COC2)c2ncc(C#N)nc21 [compound 106],15 µM,,
<0.077 µM,CCC1(CC)C(=O)NC(C)(C)c2ccc(Br)cc21 [compound 49],8.2 µM,,
0.326 µM,"CC1(C)C(=O)NC2(COC2)c2ccc(Cl)cc21 [compound 52, 6-chloro-4,4-dimethyl-2H-spiro[isoquinoline-1,3′-oxetan]-3(4H)-one]",25.6 µM,,increased BBB score
0.390 µM,CCC1(CC)C(=O)NC(C)(C)c2ccc(C#N)nc21 [compound 64],10 µM,,
0.141 µM,"CCC1(CC)C(=O)NC2(COC2)c2ccc(C#N)cc21 [compound 55, 4,4-diethyl-3-oxo-3,4-dihydro-2H-spiro[isoquinoline-1,3′-oxetane]-6-carbonitrile]",7.6 µM,,
2.067 µM,CC1(CCO)C(=O)NC2(COC2)c2ccc(C#N)cc21 (stereo not drawn) [compound 56],30 µM,,
0.976 µM,CCC1(CC)C(=O)NC(C)(C)c2ncc(C#N)cc21 [compound 57],28 µM,,
0.902 µM,CCC1(CC)C(=O)NC2(COC2)c2ncc(Cl)cc21 [compound 74],15.4 µM,,
0.420 µM,CCC1(CC)C(=O)NC(C)(C)c2ncc(Cl)cc21 [compound 72],15.4 µM,,
5.017 µM,CCC1(CCO)C(=O)NC2(COC2)c2ccc(C(F)F)nc21 (stereo not drawn) [compound 104],,30 µM,
